Measured values: PubChem BioAssay (NCI)
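Grown in 96-well plates, cells were treated for 48 hours with each compound at five concentrations. Insufficient inhibition: endpoint recorded as highest concentration tested. TGI denotes the concentration required for complete inhibition of growth.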

Legend:
Experiment in all cases: NCI tumour cell line growth inhibition, 48 h
786-0 renal = test system: 786-0 renal
A498 renal = test system: A498 renal
A549 NSCLC = test system: A549 NSCLC
ACHN renal = test system: ACHN renal
BT-549 breast = test system: BT-549 breast
CAKI-1 renal = test system: CAKI-1 renal
CCRF-CEM leukemia = test system: CCRF-CEM leukemia
COLO 205 colon = test system: COLO 205 colon
DU-145 prostate = test system: DU-145 prostate
EKVX NSCLC = test system: EKVX NSCLC
HCC-2998 colon = test system: HCC-2998 colon
HCT-116 colon = test system: HCT-116 colon
HCT-15 colon = test system: HCT-15 colon
HL-60(TB) leukemia = test system: HL-60(TB) leukemia
HOP-62 NSCLC = test system: HOP-62 NSCLC
HS 578T breast = test system: HS 578T breast
HT29 colon = test system: HT29 colon
IGROV1 ovarian = test system: IGROV1 ovarian
K-562 leukemia = test system: K-562 leukemia
KM12 colon = test system: KM12 colon
M14 melanoma = test system: M14 melanoma
MALME-3M melanoma = test system: MALME-3M melanoma
MCF7 breast = test system: MCF7 breast
MDA-MB-231 breast = test system: MDA-MB-231 breast
MDA-N = test system: MDA-N
MOLT-4 leukemia = test system: MOLT-4 leukemia
NCI-H226 lung = test system: NCI-H226 lung
NCI-H23 lung = test system: NCI-H23 lung
NCI-H460 lung = test system: NCI-H460 lung
NCI-H522 lung = test system: NCI-H522 lung
NCI/ADR-RES ovarian = test system: NCI/ADR-RES ovarian
OVCAR-3 ovarian = test system: OVCAR-3 ovarian
OVCAR-4 ovarian = test system: OVCAR-4 ovarian
OVCAR-5 ovarian = test system: OVCAR-5 ovarian
OVCAR-8 ovarian = test system: OVCAR-8 ovarian
PC-3 prostate = test system: PC-3 prostate
SF-268 CNS = test system: SF-268 CNS
SF-295 CNS = test system: SF-295 CNS
SF-539 CNS = test system: SF-539 CNS
SK-MEL-2 melanoma = test system: SK-MEL-2 melanoma
SK-MEL-28 melanoma = test system: SK-MEL-28 melanoma
SK-MEL-5 melanoma = test system: SK-MEL-5 melanoma
SK-OV-3 ovarian = test system: SK-OV-3 ovarian
SN12C renal = test system: SN12C renal
SNB-19 CNS = test system: SNB-19 CNS
SNB-75 CNS = test system: SNB-75 CNS
SR leukemia = test system: SR leukemia
SW-620 colon = test system: SW-620 colon
T-47D breast = test system: T-47D breast
TK-10 renal = test system: TK-10 renal
U251 CNS = test system: U251 CNS
UACC-257 melanoma = test system: UACC-257 melanoma
UACC-62 melanoma = test system: UACC-62 melanoma
UO-31 renal = test system: UO-31 renal
HOP-92 NSCLC = test system: HOP-92 NSCLC
LOX IMVI melanoma = test system: LOX IMVI melanoma
MDA-MB-435 = test system: MDA-MB-435
RPMI-8226 leukemia = test system: RPMI-8226 leukemia
RXF 393 renal = test system: RXF 393 renal

Measured: TGI

CCC(C)(C)c1ccc(OCCCCNC(=O)c2ccc3ccccc3c2O)c(C(C)(C)CC)c1
44.7 µM: NCI-H226 lung
80 µM: TK-10 renal
62 µM: SK-MEL-2 melanoma
71.4 µM: SK-MEL-5 melanoma
91.2 µM: NCI-H522 lung
82.5 µM: BT-549 breast
73.2 µM: OVCAR-3 ovarian
34.2 µM: COLO 205 colon
87 µM: SW-620 colon
87.9 µM: EKVX NSCLC
49.7 µM: PC-3 prostate
> 100 µM: A498 renal | A549 NSCLC | ACHN renal | CAKI-1 renal | CCRF-CEM leukemia | DU-145 prostate | HCC-2998 colon | HCT-116 colon | HL-60(TB) leukemia | HOP-62 NSCLC | HS 578T breast | HT29 colon | IGROV1 ovarian | K-562 leukemia | KM12 colon | M14 melanoma | MALME-3M melanoma | MCF7 breast | MDA-MB-231 breast | MDA-N | MOLT-4 leukemia | NCI-H23 lung | NCI-H460 lung | NCI/ADR-RES ovarian | OVCAR-4 ovarian | OVCAR-5 ovarian | OVCAR-8 ovarian | SF-268 CNS | SF-295 CNS | SF-539 CNS | SK-MEL-28 melanoma | SK-OV-3 ovarian | SN12C renal | SNB-19 CNS | SNB-75 CNS | SR leukemia | T-47D breast | U251 CNS | UACC-257 melanoma | UO-31 renal
28.5 µM: HCT-15 colon
92.4 µM: UACC-62 melanoma
93.5 µM: 786-0 renal

O=C(O)c1ccccc1CC(Cc1ccc2c(c1)CCC2)C(=O)O (centres undefined)
> 100 µM: 786-0 renal | A498 renal | A549 NSCLC | ACHN renal | CAKI-1 renal | CCRF-CEM leukemia | COLO 205 colon | DU-145 prostate | EKVX NSCLC | HCC-2998 colon | HCT-116 colon | HCT-15 colon | HL-60(TB) leukemia | HOP-62 NSCLC | HOP-92 NSCLC | HS 578T breast | HT29 colon | IGROV1 ovarian | K-562 leukemia | KM12 colon | LOX IMVI melanoma | M14 melanoma | MALME-3M melanoma | MCF7 breast | MDA-MB-231 breast | MDA-MB-435 | MDA-N | MOLT-4 leukemia | NCI-H226 lung | NCI-H23 lung | NCI-H460 lung | NCI-H522 lung | NCI/ADR-RES ovarian | OVCAR-3 ovarian | OVCAR-4 ovarian | OVCAR-5 ovarian | OVCAR-8 ovarian | PC-3 prostate | RPMI-8226 leukemia | RXF 393 renal | SF-268 CNS | SF-295 CNS | SF-539 CNS | SK-MEL-2 melanoma | SK-MEL-28 melanoma | SK-MEL-5 melanoma | SK-OV-3 ovarian | SN12C renal | SNB-19 CNS | SNB-75 CNS | SR leukemia | SW-620 colon | T-47D breast | TK-10 renal | U251 CNS | UACC-257 melanoma | UO-31 renal

Nc1ccc(N=Nc2c(S(=O)(=O)O)cc3ccccc3c2S(=O)(=O)O)cc1
> 100 µM: 786-0 renal | A498 renal | A549 NSCLC | ACHN renal | BT-549 breast | CAKI-1 renal | CCRF-CEM leukemia | DU-145 prostate | EKVX NSCLC | HCC-2998 colon | HCT-116 colon | HCT-15 colon | HOP-62 NSCLC | HOP-92 NSCLC | HS 578T breast | HT29 colon | IGROV1 ovarian | K-562 leukemia | KM12 colon | LOX IMVI melanoma | M14 melanoma | MALME-3M melanoma | MDA-MB-231 breast | MDA-MB-435 | MDA-N | MOLT-4 leukemia | NCI-H226 lung | NCI-H23 lung | NCI-H460 lung | NCI-H522 lung | NCI/ADR-RES ovarian | OVCAR-3 ovarian | OVCAR-4 ovarian | OVCAR-5 ovarian | OVCAR-8 ovarian | PC-3 prostate | RXF 393 renal | SF-268 CNS | SF-295 CNS | SK-MEL-2 melanoma | SK-MEL-28 melanoma | SK-MEL-5 melanoma | SN12C renal | SNB-19 CNS | SNB-75 CNS | SR leukemia | SW-620 colon | T-47D breast | TK-10 renal | U251 CNS | UACC-257 melanoma | UACC-62 melanoma | UO-31 renal
